Assay [1] deals with T1, Proto-oncogene tyrosine-protein kinase Src (Homo sapiens, UniProt P12931). In words: Inhibition of GST-tagged c-Src preincubated for 5 mins measured after 30 mins.
Assay [2] concerns the target T1, Proto-oncogene tyrosine-protein kinase Src. Description: Inhibition of GST-tagged c-Src up to 100 uM preincubated for 5 mins measured after 30 mins.

14 compounds from ChEMBL document CHEMBL2203061, “O-Aryl α,β-d-ribofuranosides: synthesis & highly efficient biocatalytic separation of anomers and evaluation of their Src kinase inhibitory activity” (Bioorg Med Chem, 2012) can be followed below.

Active and inactive are the calls of the source. The rule behind the calls is not given here.

T1 sequence (P12931 2-536 limits assumed): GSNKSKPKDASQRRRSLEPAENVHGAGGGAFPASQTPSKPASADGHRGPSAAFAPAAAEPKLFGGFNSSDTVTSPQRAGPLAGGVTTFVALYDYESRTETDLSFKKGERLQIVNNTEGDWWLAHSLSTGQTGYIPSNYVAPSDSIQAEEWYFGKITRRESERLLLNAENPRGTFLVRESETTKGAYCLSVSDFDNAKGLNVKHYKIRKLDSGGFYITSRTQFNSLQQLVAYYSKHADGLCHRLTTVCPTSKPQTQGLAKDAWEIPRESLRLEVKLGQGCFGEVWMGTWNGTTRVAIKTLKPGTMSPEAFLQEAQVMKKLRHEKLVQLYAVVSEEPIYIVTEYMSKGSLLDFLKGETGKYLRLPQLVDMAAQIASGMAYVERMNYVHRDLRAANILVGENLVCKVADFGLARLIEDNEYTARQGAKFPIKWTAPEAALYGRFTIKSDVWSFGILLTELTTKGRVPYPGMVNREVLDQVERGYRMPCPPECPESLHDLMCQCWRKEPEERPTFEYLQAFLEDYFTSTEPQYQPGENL

In the case of `OC[C@H]1O[C@@H](Oc2ccc(-c3ccccc3)cc2)[C@H](O)[C@@H]1O`, in assay [1], the IC50 was 125 µM.

For `OC[C@H]1O[C@@H](Oc2ccc3ccccc3c2)[C@H](O)[C@@H]1O`, in assay [1], the IC50 was 225 µM. Compared with the last compound, the IC50 is about 1.8-fold higher. Same read-out and setting: the value for `OC[C@H]1O[C@H](Oc2cccc3ccccc23)[C@H](O)[C@@H]1O` was 185 µM; that for `OC[C@H]1O[C@H](Oc2ccc3ccccc3c2)[C@H](O)[C@@H]1O` was 297 µM; that for `Cc1cccc(O[C@H]2O[C@H](CO)[C@@H](O)[C@H]2O)c1` was 451 µM. On the same count and under the same terms, the value for `OC[C@H]1O[C@@H](Oc2ccc(O)cc2)[C@H](O)[C@@H]1O` was 272 µM.

For `OC[C@H]1O[C@H](Oc2ccc(O)cc2)[C@H](O)[C@@H]1O`, the inhibition result in assay [2] is “inactive”. Regarding `OC[C@H]1O[C@@H](Oc2cccc3ccccc23)[C@H](O)[C@@H]1O`, it took 1370 µM to reach half-maximal inhibition in assay [1] (IC50). That is a millimolar value. Take `COc1cccc(O[C@H]2O[C@H](CO)[C@@H](O)[C@H]2O)c1`: the inhibition entry in assay [2] was “inactive”. On the same count and under the same terms, then `OC[C@H]1O[C@H](Oc2ccc(-c3ccccc3)cc2)[C@H](O)[C@@H]1O`, with “inactive”.

With `COc1ccc(O[C@@H]2O[C@H](CO)[C@@H](O)[C@H]2O)cc1`, in assay [1], the IC50 was 484 µM. Take `COc1ccc(O[C@H]2O[C@H](CO)[C@@H](O)[C@H]2O)cc1`: the inhibition result in assay [2] is “inactive”. Regarding `COc1cccc(O[C@@H]2O[C@H](CO)[C@@H](O)[C@H]2O)c1`, 95 µM corresponded to half-maximal inhibition in assay [1] (IC50).

Compound `Cc1ccc(O[C@@H]2O[C@H](CO)[C@@H](O)[C@H]2O)cc1` gave an IC50 in assay [1] of 143 µM.

As a reminder, the IC50 is the concentration needed to halve the response being measured. Read a low IC50 as greater potency.
